In PubChem BioAssay AID652211 (Johns Hopkins Ion Channel Center, 2013):
Activity calls are given as the source filed them.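 Rule for the calls: active = lowers flux through the TASK3 potassium channel at some tested dose, with a dose response curve; inactive = no inhibition at any dose or no dose response.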

Biological target: Potassium channel subfamily K member 9 (Homo sapiens) (UniProt Q9NPC2)
Assay: TASK3 (KCNK9) channel inhibitors, thallium flux, SAR follow-up, selectivity assay for TASK1 inhibitor project, cell-based, FluxOR thallium flux, concentration-response (AID 652211)
Conditions: KCNK9-expressing cells, FluxOR thallium flux fluorescence

Sequence of Potassium channel subfamily K member 9 (Homo sapiens) (Q9NPC2 whole entry, looked up): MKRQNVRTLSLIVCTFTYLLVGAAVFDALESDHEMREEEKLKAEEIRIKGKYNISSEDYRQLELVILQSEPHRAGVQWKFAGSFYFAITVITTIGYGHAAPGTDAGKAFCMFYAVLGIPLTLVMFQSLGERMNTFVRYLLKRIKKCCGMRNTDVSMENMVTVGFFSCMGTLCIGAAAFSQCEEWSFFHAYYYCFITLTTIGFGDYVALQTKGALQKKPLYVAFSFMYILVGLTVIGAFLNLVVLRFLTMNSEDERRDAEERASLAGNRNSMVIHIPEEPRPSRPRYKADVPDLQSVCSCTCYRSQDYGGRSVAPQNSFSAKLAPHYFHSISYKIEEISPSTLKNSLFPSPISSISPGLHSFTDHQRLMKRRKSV

| IC50 | SMILES |
| --- | --- |
| 600 nM | Cc1cccc(C(=O)Nc2cccc(NC(=O)c3cccc(F)c3)c2)c1 |
| 730 nM | CC(C)c1ccccc1C(=O)Nc1cccc(NC(=O)c2ccccc2OC(F)(F)F)c1 |

Same assay, conditions: KCNK9-expressing cells, FluxOR thallium flux fluorescence; at 30 µM (top of the series)

| thallium flux ratio, lower = inhibition | SMILES |
| --- | --- |
| inactive | COc1ccc(C(=O)Nc2cccc(NC(=O)c3cccc(C)c3)c2)cc1 |
| inactive | Cc1cccc(C(=O)Nc2cccc(NC(=O)c3ccc(Cl)cc3)c2)c1 |
| inactive | O=C(Nc1cccc(NC(=O)c2ccoc2)c1)c1ccccc1 |
| inactive | CCOc1ccccc1NC(=O)c1cccc(C(=O)NC2CCCC2)c1 |
| inactive | O=C(Nc1cccc(NC(=O)c2ccncc2)c1)c1ccccc1 |
| inactive | O=C(Nc1cccc(NC(=O)c2cccc(Cl)c2)c1)c1ccccc1 |
| inactive | O=C(Nc1cccc(NC(=O)c2ccc(F)cc2)c1)c1ccccc1 |
| inactive | O=C(Nc1cccc(NC(=O)c2cccnc2)c1)c1ccccc1 |
| inactive | Cc1cccc(C(=O)Nc2cccc(NC(=O)c3ccc(C(C)(C)C)cc3)c2)c1 |
| inactive | COc1ccc(C(=O)Nc2cccc(NC(=O)c3ccccc3)c2)cc1 |
| inactive | Cc1cccc(C(=O)Nc2cccc(NC(=O)c3ccncc3)c2)c1 |
| inactive | O=C(Nc1cccc(NC(=O)c2ccccc2)c1)c1ccccc1 |
| inactive | O=C(Nc1cccc(NC(=O)c2cccc(F)c2)c1)c1ccccc1 |
| inactive | Cc1cccc(NC(=O)c2cccc(NC(=O)c3ccccc3)c2)c1 |
| inactive | CCOc1ccccc1NC(=O)c1cccc(NC(=O)c2ccc(Cl)cc2)c1 |
| inactive | O=C(Nc1cccc(NC(=O)c2ccsc2)c1)c1ccccc1 |
| inactive | O=C(Nc1cccc(NC(=O)c2cccc(C(F)(F)F)c2)c1)c1ccccc1 |
| inactive | CCOc1ccccc1NC(=O)c1cccc(NC(=O)C2CCCO2)c1 (centres undefined) |
| inactive | O=C(Nc1cccc(NC(=O)c2ccc(C(F)(F)F)cc2)c1)c1ccccc1 |

| thallium flux ratio, lower = inhibition | SMILES |
| --- | --- |
| inactive | Cc1cccc(C(=O)Nc2cccc(C(=O)Nc3ccccc3)c2)c1 |
| inactive | Cc1cccc(C(=O)Nc2ccccc2NC(=O)c2ccccc2)c1 |
| inactive | COc1ccccc1C(=O)Nc1cc(NC(=O)c2ccccc2C(C)C)ccc1F |
| inactive | CCOc1ccccc1NC(=O)c1cccc(NC(=O)c2ccc(C(F)(F)F)cc2)c1 |
| inactive | CCOc1ccccc1NC(=O)c1cccc(NC(=O)C2CCOC2)c1 (centres undefined) |
| inactive | Cc1cccc(S(=O)(=O)Nc2cccc(NC(=O)c3ccccc3)c2)c1 |
| inactive | CC(C)(C)c1ccc(C(=O)Nc2cccc(NC(=O)c3ccccc3)c2)cc1 |
| inactive | O=C(Nc1cccc(NC(=O)c2ccc(Cl)cc2)c1)c1ccccc1 |
| inactive | CCOc1ccc(NC(=O)c2cccc(NC(=O)C3CCCC3)c2)cc1 |
| inactive | CN(C)c1ccc(C(=O)Nc2cccc(NC(=O)c3ccccc3)c2)cc1 |
| inactive | CCOc1ccccc1NC(=O)c1cccc(NC(=O)c2ccc(OC)cc2)c1 |
| inactive | O=C(Nc1cccc(NC(=O)c2cccs2)c1)c1ccccc1 |
| inactive | O=C(Nc1cccc(NC(=O)c2ccco2)c1)c1ccccc1 |
| inactive | Cc1cccc(C(=O)Nc2ccccc2C(=O)Nc2ccccc2)c1 |
| inactive | Cc1cccc(NC(=O)c2ccccc2NC(=O)c2ccccc2)c1 |
| inactive | Cc1cccc(C(=O)Nc2cccc(NC(=O)c3ccc(N(C)C)cc3)c2)c1 |
| inactive | Cc1ccc(C(=O)Nc2cccc(NC(=O)c3ccccc3)c2)cc1 |
| inactive | Cc1cccc(C(=O)Nc2cccc(NC(=O)c3ccc(C(F)(F)F)cc3)c2)c1 |
